The source of these data is paper PMC11324666, “Two novel in vitro assays to screen chemicals for their capacity to inhibit thyroid hormone transmembrane transporter proteins OATP1C1 and OAT4” (Archives of Toxicology, 2024).

Where two headings read alike, the source gives them in different places. Some results are limits rather than exact numbers.

Data set [1] concerns the target T1, OAT4 (Homo sapiens, UniProt Q9NSA0).
T1 construct: V5 (from pLenti6/V5-DEST); expressed in transfected cells; host or cells: MDCK-1 (lentiviral transduction, blasticidin selection)
T1 sequence (Q9NSA0 1-550): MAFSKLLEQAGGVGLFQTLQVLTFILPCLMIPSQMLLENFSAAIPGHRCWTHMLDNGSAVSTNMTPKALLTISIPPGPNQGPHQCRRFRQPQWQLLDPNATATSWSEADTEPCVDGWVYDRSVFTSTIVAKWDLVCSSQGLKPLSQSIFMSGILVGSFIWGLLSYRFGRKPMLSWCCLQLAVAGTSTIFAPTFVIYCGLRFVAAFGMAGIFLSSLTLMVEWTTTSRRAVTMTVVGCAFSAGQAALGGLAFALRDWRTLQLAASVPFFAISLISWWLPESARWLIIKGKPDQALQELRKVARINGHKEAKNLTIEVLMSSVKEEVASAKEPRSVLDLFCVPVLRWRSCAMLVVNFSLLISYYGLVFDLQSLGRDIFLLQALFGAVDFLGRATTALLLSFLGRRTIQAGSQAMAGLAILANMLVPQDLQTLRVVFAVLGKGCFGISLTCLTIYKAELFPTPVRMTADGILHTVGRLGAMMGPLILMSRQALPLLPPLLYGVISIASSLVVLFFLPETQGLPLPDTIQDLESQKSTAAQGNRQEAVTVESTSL
The data set can be described thus: MDCK-OAT4 TH uptake assay with 125I-T4 tracer. The class given is cell-based. Conditions: for T4 uptake inhibition BMC20 (M), [CI]: concentration that inhibits 125I-T4 uptake by 20%, brackets = 95% CI; for T4 uptake inhibition BMC20 (M), [CI] / 125I-T4 uptake compared to the vehicle control (range finding): 10 nM T4, 20 min; for 125I-T4 uptake compared to the vehicle control (range finding): single concentration 10 or 100 µM, below 80% = positive hit. As for the experimental part: Subsequently OAT4 in pENTR™/D-TOPO® Vector was shuffled into the pLenti6/V5-DEST vector (Thermo Fisher) using Gateway™ LR Clonase™ II Enzyme mix (Thermo Fisher) according to the manufacture’s protocol.
To generate an OAT4 stable cell line, MDCK-1 cells were plated in 12-well plates with full growth medium and transduced with fresh viral supernatants in the absence of antibiotics in medium. After 2 days, MDCK-1 cells transduced with OAT4 (MDCK-OAT4) or empty vector (MDCK-DEST) were selected in full growth medium supplemented with 2 µg/mL blasticidin and further maintained under blasticidin selection.
MDCK-OAT4 and MDCK-DEST cells were cultured in DMEM:F12 (L-glutamine, 15 mM HEPES) (Gibco) supplemented with (100 µg/mL penicillin + 100 µg/mL streptomycin), 10% fetal calf serum (Gibco) and 2 µg/mL blasticidin (Sigma). CHO-K1 OATP1C1 or WT cells were cultured in F12 nutrient mix (Gibco) supplemented with (100 µg/mL penicillin + 100 µg/mL streptomycin), 10% fetal calf serum (Gibco) and […] G418 (Sigma). All cell cultures were incubated at 37 °C with 5% CO2 saturation until 80% confluency. MDCK-OAT4 and MDCK-DEST cells were seeded in 96 wells plate at a density of 4 × 10^5 cells in 100 µL medium per well and incubated for 24 h before the start of the MDCK-OAT4 TH uptake assay. CHO-K1 OATP1C1 and WT cells were seeded in 96 wells plate at a density of 3 × 10^5 cells in 100 µL medium per well 72 h before the CHO-K1 OATP1C1 TH uptake assay. Medium from CHO-K1 OATP1C1 or WT assay plates was changed to serum-free F12 medium containing 5 mM sodium-butyrate 24 h before start of the CHO-K1 OATP1C1 TH uptake assay to increase transfected expression of SV-40 promotor plasmids.
Subsequently 10 µL of a tenfold stock of test compound in uptake buffer (solvent concentration 1% v/v) was added to each well. […] Cells were exposed at 37 °C for 20 min (MDCK-OAT4) or 30 min (CHO-K1 OATP1C1), unless stated differently. After exposure, cells were immediately washed with ice-cold PBS supplemented with 0.1% bovine serum albumin (BSA). Subsequently, cells were lysed in 50 µL of 0.1 M NaOH under continuous shaking at room temperature. After 20 min, cell lysates were manually transferred into separate 5 mL polypropylene tubes. One tube was also prepared with 10 µL of the T4 tracer solution. Radioactivity was measured in a Wizard^2 gamma counter (Perkin Elmer).
For the CHO-K1 OATP1C1 TH uptake assay total of 29 chemicals (Table 1) were selected for the EDC screening based on available literature data. […] The same chemicals were selected for the MDCK-OAT4 TH uptake assay, with the exception of BPF, VRP and TCS. […] The THTMT TH uptake assay was then performed as described earlier. […] A concentration of 100 µM ICG was used as a reference chemical for OATP1C1 and 100 µM LESI for OAT4. At least three independent experiments were performed for each chemical. Each individual experiment contained three technical replicates of each control and concentration tested.
Raw values were normalized to the total amount of radioactivity in the T4 tracer solution. These values were expressed as a percentage of total radioactivity added (or uptake percentage) and used for all further data analysis. Statistically significant differences between the T4 uptake of transfected and wild type cells, in the presence or absence of inhibitor, were determined by two-way ANOVA (α = 5%, two-sided). […] In brief, uptake values were normalized to the median response of the vehicle and positive controls for each plate. […] Statistical analysis were performed using GraphPad Prism version 8 for Windows (GraphPad Software, San Diego, California USA) and SAS 9.3 (SAS Institute, Cary NC).

Data set [2] deals with MDCK-OAT4 cells. The data set can be described thus: CellTiter-Glo luminescent cell viability assay in MDCK-OAT4 cells. The note with it: for Cytotoxicity IC10: concentration that inhibits cell viability by 10%, MDCK-OAT4 cells, 20 min exposure. The procedure:
Cell viability was assessed through the quantitation of ATP present in cells using the commercially available CellTiter-Glo® luminescent cell viability assay and performed according to the manufacturer’s instruction (Promega, Leiden, the Netherlands). Briefly, cells were seeded as described earlier in opaque-walled clear-bottom 96 well plates. On the day of the experiment, each well was washed with 200 µL phosphate buffered saline (PBS) and exposed to 80 µL of uptake buffer, 10 µL of a tenfold stock of test compound solved in uptake buffer or control and 10 µL of T4 (final concentration 10 nM). 0.1% DMSO was used as a solvent control, while 10% DMSO was used as a positive control. After exposure for the indicated times similar to THTMT TH uptake assay, cells were immediately washed with ice-cold PBS + 0.1%BSA and exposed to 100 µL of the CellTiter-Glo® Reagent. Plates were then shaken on an orbital shaker for 2 min and left to incubate at room temperature for 10 min. Luminescence was measured on a BioTek Cytation 5 microplate reader. […] Each individual experiment was repeated at least twice and contained three technical replicates of each control and concentration tested.
Figure S2. […] Blue dots indicate the plate medians from three or four independent experiments, all control and chemical concentrations were tested in triplicates per plate. The black line indicates the best-fit concentrations response curve, the dotted line the corresponding 95% confidence interval.
A general note: In ATP-based viability assays light output follows the ATP content of the culture.

Data set [3] deals with oatp1c1. Also noted: method as in Westholm et al. (2009). Conditions: T4 1 nM; ref Westholm et al. (2009); read-out: IC50 of T4 transmembrane transport inhibition; cited from earlier work.
The subject of data set [4] is oatp1c1. Also noted: method as in Tohyama et al. (2004). Conditions: ref Tohyama et al. (2004); cited from earlier work.

Take `Oc1c(Cl)c(Cl)c(Cl)c(Cl)c1Cl` [Pentachlorophenol]: the “T4 uptake inhibition BMC20 (M), [CI]” value in data set [1] was 2.65E−05 [2.17E−05; 3.23E−05] M. Moreover, in data set [2] (at concentrations of the uptake assay, Figure S2), the cytotoxic effects entry is “cytotoxic”. Further, the “Cytotoxicity IC10” value in data set [2] worked out at 1.14 µM.
Regarding `CC(C)(c1cc(Br)c(O)c(Br)c1)c1cc(Br)c(O)c(Br)c1` [Tetrabromobisphenol A, Tetrabromobisphenol-A], in data set [1], the “T4 uptake inhibition BMC20 (M), [CI]” value is 6.49E−07 [4.32E−07; 9.74E−07] M and the “125I-T4 uptake compared to the vehicle control (range finding)” value is “below 80%”. Moreover, in data set [2], the “Cytotoxicity IC10” value is over 10 µM.
Turning to `O=S(=O)([O-])c1cc(S(=O)(=O)O)ccc1C1=c2cc3c4c(c2Oc2c1cc1c5c2CCCN5CCC1)CCC[N+]=4CCC3` [Sulforhodamine 101, reference compound], in data set [1], the “125I-T4 uptake compared to the vehicle control (range finding)” value is listed as at least 80%.
Turning to `O=S(=O)(O)C(F)(F)C(F)(F)C(F)(F)C(F)(F)C(F)(F)C(F)(F)C(F)(F)C(F)(F)F` [Perfluorooctanesulfonic acid], in data set [1], the “T4 uptake inhibition BMC20 (M), [CI]” value is 1.44E−06 [4.08E−07; 5.05E−06] M and the “125I-T4 uptake compared to the vehicle control (range finding)” value is reported as “below 80%”. In addition, the “Cytotoxicity IC10” value in data set [2] was over 100 µM.
By IC50 is commonly meant the concentration that gives 50% inhibition. Consider `CC1(C)C(/C=C/C=C/C=C/C=C2\N(CCCCS(=O)(=O)O)c3ccc4ccccc4c3C2(C)C)=[N+](CCCCS(=O)(=O)[O-])c2ccc3ccccc3c21` [Indocyanine green, reference compound], for which the “T4 uptake inhibition BMC20 (M), [CI]” value in data set [1] is 1.68E−05 [1.20E−05; 2.33E−05] M. Also, the “Cytotoxicity IC10” value in data set [2] is over 10 µM. Moreover, the 50% inhibitory concentration (IC50) in data set [3] is 0.1 µM.
Turning to `CO[C@H]1/C=C/O[C@@]2(C)Oc3c(C)c(O)c4c(O)c(c(/C=N/N5CCN(C)CC5)c(O)c4c3C2=O)NC(=O)/C(C)=C\C=C\[C@H](C)[C@H](O)[C@@H](C)[C@@H](O)[C@@H](C)[C@H](OC(C)=O)[C@@H]1C` [Rifampicin, reference compound], the “T4 uptake inhibition BMC20 (M), [CI]” value in data set [1] was 1.02E−05 [4.85E−06; 2.14E−05] M. Further, the “Cytotoxicity IC10” value in data set [2] was over 100 µM.
On to `COc1cc([C@@H]2Oc3c(O)cc([C@H]4Oc5cc(O)cc(O)c5C(=O)[C@@H]4O)cc3[C@H]2CO)ccc1O` [Silychristin, reference compound], for which, in data set [1], the “125I-T4 uptake compared to the vehicle control (range finding)” value is at least 80%.
As to `O=C1OC(c2ccc(O)c(S(=O)(=O)O)c2)(c2ccc(O)c(S(=O)(=O)O)c2)c2c(Br)c(Br)c(Br)c(Br)c21` [Bromosulfophthalein, reference compound], in data set [1], the “BMC20 (20% reduction in T4 uptake)” value turned out to be 0.072 µM; the “T4 uptake inhibition BMC20 (M), [CI]” value was 7.25E−08 [3.85E−08; 1.36E−07] M; the “125I-T4 uptake compared to the vehicle control (range finding)” value was “below 80%”. Also, in data set [2], the “Cytotoxicity IC10” value was over 100 µM.
What is called Ki is the dissociation constant of the complex between target and ligand, obtained from inhibition or displacement. Regarding `CCCN(CCC)S(=O)(=O)c1ccc(C(=O)O)cc1` [Probenecid, reference compound], in data set [1], the “T4 uptake inhibition BMC20 (M), [CI]” value was 3.65E−05 [2.69E−05; 4.61E−05] M. In addition, the Ki in data set [4] is 293 µM.
As to `O=c1c(O)c(-c2ccc(O)c(O)c2)oc2cc(O)cc(O)c12` [Quercetin], the “T4 uptake inhibition BMC20 (M), [CI]” value in data set [1] is 1.23E−05 [4.77E−06; 3.16E−05] M. Besides, the “Cytotoxicity IC10” value in data set [2] is over 100 µM.
Consider `Oc1ccc(Cc2ccc(O)cc2)cc1` [Bisphenol F, Bisphenol-F], for which, in data set [1], the “125I-T4 uptake compared to the vehicle control (range finding)” value is given as “below 80%”.
With `O=C(O)C(F)(F)C(F)(F)C(F)(F)C(F)(F)C(F)(F)C(F)(F)C(F)(F)F` [Perfluorooctanoic acid], in data set [1], the “T4 uptake inhibition BMC20 (M), [CI]” value is 1.38E−06 [4.27E−07; 4.44E−06] M. Besides, the “Cytotoxicity IC10” value in data set [2] is over 100 µM.
Take `Oc1ccc(C(c2ccc(O)cc2)(C(F)(F)F)C(F)(F)F)cc1` [Bisphenol AF, Bisphenol-AF]: the “T4 uptake inhibition BMC20 (M), [CI]” value in data set [1] is 5.39E−06 [1.65E−06; 1.76E−05] M. Moreover, the cytotoxic effects entry in data set [2] is listed as “cytotoxic”.
